From patent US20150094225A1, “METHOD OF OBTAINING INFORMATION FOR IDENTIFYING TUMOR CELL UNDERGOING EPITHELIAL-MESENCHYMAL TRANSITION IN SAMPLE, METHOD OF IDENTIFYING TUMOR CELL UNDERGOING EPITHELIAL-MESENCHYMAL TRANSITION IN SAMPLE, METHOD OF DIAGNOSING SUBJECT HAVING TUMOR CELL UNDERGOING EPITHELIAL-MESENCHYMAL TRANSITION AND …” (Samsung Electronics Co., Ltd., priority 2013, published 2015)
Like-named read-outs stand apart in the source and are kept apart here.

Key:
Type in all cases: cell-based
[1] = system: breast cancer cells (MCF7); assay: western blotting of EMT-induced MCF7 cells cultured in TSA- or CoCl2-containing medium
[2] = system: breast cancer cells (MCF7); assay: RT-PCR of EMT-induced MCF7 cells cultured in medium including TSA, SB or CoCl2; conditions: for expression of EpCAM / expression of Twist / expression of snail: 0.5 μM TSA or 2.5 mM SB
[3] = system: prostate cancer cells (Du145); assay: western blotting and RT-PCR of EMT-induced DU145 cells cultured in medium including TSA, SB or CoCl2
[4] = system: lung cancer cells (NCI-1650); assay: western blotting of EMT-induced NCI-1650 cells cultured in TSA-containing medium; conditions: NCI-1650, western blotting, 0.5 μM TSA, one day
[5] = system: lung cancer cells (NCI-1650); assay: RT-PCR of EMT-induced NCI-1650 cells cultured in TSA-containing medium; conditions: NCI-1650, RT-PCR, 0.5 μM TSA, one day
[6] = MCF7, RT-PCR, 0.5 μM TSA, 2.5 mM SB or 400 μM CoCl2, one day
[7] = DU145, western blotting/RT-PCR, 0.5 μM TSA, 2.5 mM SB or 400 μM CoCl2, one day
[8] = MCF7, western blotting (FIG. 15: western/RT-PCR not told apart), 0.5 μM TSA or 400 μM CoCl2, one day
[9] = MCF7, RT-PCR, 0.5 μM TSA or 400 μM CoCl2, one day

SMILES: [Cl-].[Cl-].[Co+2] [CoCl2]
- expression of HIF-1α [1]: gradually increased
- expression of N-cadherein [1]: gradually increased
- expression of snail [1]: gradually increased
- expression of ACACA [2]: decreased
- expression of ACOT1 [2]: decreased
- expression of FASN [2]: decreased
- expression of PPARγ [2]: decreased
- expression of PTPLB [2]: decreased
- expression of SCD1 [2]: increased
- expression of ACOT1 [3]: decreased
- expression of EpCAM [3]: increased
- expression of PTPLB [3]: decreased
- expression of SCD1 [3]: increased
- expression of snail [3]: increased

SMILES: CCCC(=O)[O-].[Na+] [SB, sodium butyrate]
- expression of EpCAM ([2]; MCF7, RT-PCR, one day): decreased
- expression of Twist ([2]; MCF7, RT-PCR, one day): increased
- expression of snail ([2]; MCF7, RT-PCR, one day): increased
- expression of ACOT1 [2, 6]: decreased
- expression of PTPLB [2, 6]: decreased
- expression of ACOT1 [3, 7]: decreased
- expression of EpCAM [3, 7]: increased
- expression of PTPLB [3, 7]: decreased
- expression of SCD1 [3, 7]: increased
- expression of snail [3, 7]: increased

SMILES: CC(/C=C/C(=O)NO)=C\[C@@H](C)C(=O)c1ccc(N(C)C)cc1 [TSA, Trichostatin A]
- expression of N-cadherein [1, 8]: gradually increased
- expression of snail [1, 8]: gradually increased
- expression of E-cadherin ([1]; MCF7, western blotting, 0.5 μM TSA, cultured one day): decreased
- expression of ACACA [2, 9]: increased
- expression of PPARγ [2, 9]: decreased
- expression of SCD1 [2, 9]: increased
- expression of EpCAM ([2]; MCF7, RT-PCR, one day): decreased
- expression of Twist ([2]; MCF7, RT-PCR, one day): increased
- expression of snail ([2]; MCF7, RT-PCR, one day): increased
- expression of ACOT1 [2, 6]: decreased
- expression of PTPLB [2, 6]: decreased
- expression of N-cadherin ([2]; MCF7, RT-PCR, 0.5 μM TSA, one day): increased
- expression of N-cadherein [4]: gradually increased
- expression of Vimentin [4]: gradually increased
- expression of snail [4]: gradually increased
- expression of ACOT1 [5]: decreased
- expression of PTPLB [5]: decreased
- expression of SCD1 [5]: increased
- expression of ACOT1 [3, 7]: decreased
- expression of EpCAM [3, 7]: increased
- expression of PTPLB [3, 7]: decreased
- expression of SCD1 [3, 7]: increased
- expression of snail [3, 7]: increased
